Experimental findings from patent US11236044B2, “Selective inhibitors of 12(S)-lipoxygenase (12-LOX) and methods for use of the same” (THE REGENTS OF THE UNIVERSITY OF MICHIGAN, priority 2018, dated 2022) are described below.

Like-named read-outs stand apart in the source and are kept apart here.

A short description of this series: Pharmacokinetic study of the inhibitors in mice blood plasma (PO and IV). Format: in vivo. Particulars: for concentration at 2 h / concentration at 4 h / concentration at 7 h: mouse, plasma, 30 mg/kg. How it is done: Pharmacokinetic Study of the Inhibitors in Mice Blood Plasma
The blood plasma concentration of compounds A1, A2, and A4 in mice was determined following per os, oral compound administration (“PO”) and intravenous (“IV”) administration
Calibration curve. The concentration range was evaluated from 2.5-5000 ng/ml for compound A2, 1-5000 ng/ml for compound A4, and 5-5000 ng/ml for compound A1. The curve was built with linear regression with weighing (1/X2). The linear regression analysis was performed by plotting the peak area ratio (y) against the concentration (x) in ng/mL.
Instrument Conditions. The LC-MS and mass spectrometry conditions for the compounds tested are shown below.
Results. The individual and average compound A1, A2, and A4 concentration-time data for IV and PO dosed groups are listed in Table 1, and graphically presented in FIG. 1.

[1] abbreviates: iv, IV 30 mg/kg, 2 h, n=3 (outliers excluded), read-out: Concentration in Plasma, Mean.
Setting [2] is: iv, IV 30 mg/kg, 2 h, read-out: Concentration in Plasma, Mouse 1.
Setting [3] is: iv, IV 30 mg/kg, 2 h, read-out: Concentration in Plasma, Mouse 2.
Setting [4] is: iv, IV 30 mg/kg, 2 h, read-out: Concentration in Plasma, Mouse 3.
The mark [5] stands for this setting: iv, IV 30 mg/kg, 4 h, read-out: Concentration in Plasma, Mouse 1.
The mark [6] stands for this setting: iv, IV 30 mg/kg, 4 h, read-out: Concentration in Plasma, Mouse 3.
The mark [7] stands for this setting: iv, IV 30 mg/kg, 7 h, n=3 (outliers excluded), read-out: Concentration in Plasma, Mean.
The mark [8] stands for this setting: iv, IV 30 mg/kg, 7 h, read-out: Concentration in Plasma, Mouse 1.
[9] abbreviates: iv, IV 30 mg/kg, 7 h, read-out: Concentration in Plasma, Mouse 2.
The mark [10] stands for this setting: iv, IV 30 mg/kg, 7 h, read-out: Concentration in Plasma, Mouse 3.
Where [11] appears, read: po, PO 30 mg/kg, 2 h, n=3 (outliers excluded), read-out: Concentration in Plasma, Mean.
The mark [12] stands for this setting: po, PO 30 mg/kg, 2 h, read-out: Concentration in Plasma, Mouse 3.
[13] abbreviates: po, PO 30 mg/kg, 4 h, n=3 (outliers excluded), read-out: Concentration in Plasma, Mean.
[14] abbreviates: po, PO 30 mg/kg, 4 h, read-out: Concentration in Plasma, Mouse 1.
Setting [15] is: po, PO 30 mg/kg, 4 h, read-out: Concentration in Plasma, Mouse 3.
Where [16] appears, read: po, PO 30 mg/kg, 7 h, n=3 (outliers excluded), read-out: Concentration in Plasma, Mean.
Setting [17] is: po, PO 30 mg/kg, 7 h, read-out: Concentration in Plasma, Mouse 1.
The mark [18] stands for this setting: po, PO 30 mg/kg, 7 h, read-out: Concentration in Plasma, Mouse 2.

For `COc1cccc(CNc2ccc(S(=O)(=O)Nc3cccc(C(F)(F)F)c3)cc2)c1O` [Compound A2], the “Concentration in Plasma, Mouse 2” value is, setting by setting: (IV 30 mg/kg, 4 h) “*1369.6 ng/ml”; (PO 30 mg/kg, 2 h) “*6042.8 ng/ml”. Also, the “Concentration in Plasma, Mouse 3” value (PO 30 mg/kg, 7 h) is given as “*301.8 ng/ml”. Further, the concentration at 2 h turned out to be 199 ng/mL under setting [1]; 144 ng/mL under setting [2]; 333 ng/mL under setting [3]; 118 ng/mL under setting [4]; 145 ng/mL under setting [11]; 59 ng/mL (po, PO 30 mg/kg, 2 h, read-out: Concentration in Plasma, Mouse 1). Besides, the concentration at 2 h under setting [12] is 230 ng/mL. Further, the concentration at 4 h reads like this: (iv, IV 30 mg/kg, 4 h, n=3 (outliers excluded), read-out: Concentration in Plasma, Mean) 112 ng/mL; under setting [5], 127 ng/mL; under setting [6], 96 ng/mL; under setting [13], 74.3 ng/mL; under setting [14], 38.9 ng/mL; (po, PO 30 mg/kg, 4 h, read-out: Concentration in Plasma, Mouse 2) 103 ng/mL. The concentration at 4 h under setting [15] was 81.2 ng/mL. In addition, the concentration at 7 h runs as follows: under setting [7], 31 ng/mL; under setting [8], 49.3 ng/mL; under setting [9], 16.4 ng/mL; under setting [10], 27.4 ng/mL; under setting [16], 91.3 ng/mL; under setting [17], 106 ng/mL. Moreover, the concentration at 7 h under setting [18] was 76.8 ng/mL.

On to `COc1cccc(CNc2ccc(S(=O)(=O)Nc3cccc(C4(C(F)(F)F)CC4)c3)cc2)c1O` [Compound A4, 4-((2-hydroxy-3-methoxybenzyl)amino)-N-(3-(1-(trifluoromethyl)cyclopropyl)phenyl)benzenesulfonamide], for which, for the setting “PO 30 mg/kg, 2 h”, the “Concentration in Plasma, Mouse 1” value is “*20.2 ng/ml”. Also, the “Concentration in Plasma, Mouse 2” value (PO 30 mg/kg, 4 h) is “*127.5 ng/ml”. Also, the concentration at 2 h turned out to be 112 ng/mL under setting [1]; 94.2 ng/mL under setting [2]; 172 ng/mL under setting [3]; 71 ng/mL under setting [4]; 5260 ng/mL under setting [11]; 642 ng/mL (po, PO 30 mg/kg, 2 h, read-out: Concentration in Plasma, Mouse 2). Further, under setting [12], the concentration at 2 h was found to be 410 ng/mL. Besides, the concentration at 4 h is 20.8 ng/mL under setting [5]; 28.8 ng/mL (iv, IV 30 mg/kg, 4 h, read-out: Concentration in Plasma, Mouse 2); 20.6 ng/mL under setting [6]; 33.6 ng/mL under setting [13]; 33.4 ng/mL under setting [14]; 33.8 ng/mL under setting [15]. Besides, the concentration at 7 h is, setting by setting: under setting [7], 10.2 ng/mL; under setting [8], 24.1 ng/mL; under setting [9], 5.6 ng/mL; under setting [10], 0.8 ng/mL; under setting [16], 29 ng/mL; under setting [17], 33.2 ng/mL. Besides, the concentration at 7 h runs as follows: under setting [18], 22.9 ng/mL; (po, PO 30 mg/kg, 7 h, read-out: Concentration in Plasma, Mouse 3) 30.9 ng/mL.
